Measured values as given in PubChem BioAssay AID1963875 (Molecular Pharmacology Branch, DTP, NCI, 2024).

Test system: KRAS-mutant PDC complex spheroid viability
Experiment: Anticancer human tumor 186277-243-T-J2-PDC patient-derived colon adenocarcinoma cell line growth inhibition [KRAS2]
Settings: for IC50: curve of first compound; for viability, T/C: stronger effect = lower value
How it was run: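 KRAS-mutant tumor cells were grown as spheroids with HUVEC endothelial cells and human MSCs as stroma. Targeted agents were tested alone and with KRAS pathway inhibitors. Doses started at or near clinical Cmax, or 10 microM, descending half-log.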

[1] = second compound 0.0316 µM, first compound 0.0316 µM
[2] = second compound 0.0316 µM, first compound 0.1 µM
[3] = second compound 0.0316 µM, first compound 0.316 µM
[4] = second compound 0.0316 µM, first compound 1 µM
[5] = second compound 0.0316 µM, first compound 3.16 µM
[6] = second compound 0.0316 µM, first compound 10 µM
[7] = second compound 0.1 µM, first compound 0.0316 µM
[8] = second compound 0.1 µM, first compound 0.1 µM
[9] = second compound 0.1 µM, first compound 0.316 µM
[10] = second compound 0.1 µM, first compound 1 µM
[11] = second compound 0.1 µM, first compound 3.16 µM
[12] = second compound 0.1 µM, first compound 10 µM
[13] = second compound 0.316 µM, first compound 0.0316 µM
[14] = second compound 0.316 µM, first compound 0.1 µM
[15] = second compound 0.316 µM, first compound 0.316 µM
[16] = second compound 0.316 µM, first compound 1 µM
[17] = second compound 0.316 µM, first compound 3.16 µM
[18] = second compound 0.316 µM, first compound 10 µM
[19] = second compound 1 µM, first compound 0.0316 µM
[20] = second compound 1 µM, first compound 0.1 µM
[21] = second compound 1 µM, first compound 0.316 µM
[22] = second compound 1 µM, first compound 1 µM
[23] = second compound 1 µM, first compound 3.16 µM
[24] = second compound 1 µM, first compound 10 µM
[25] = second compound 3.16 µM, first compound 0.0316 µM
[26] = second compound 3.16 µM, first compound 0.1 µM
[27] = second compound 3.16 µM, first compound 0.316 µM
[28] = second compound 3.16 µM, first compound 1 µM
[29] = second compound 3.16 µM, first compound 3.16 µM
[30] = second compound 3.16 µM, first compound 10 µM
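Wherever viability, T/C is given: viability read after seven days of compound exposure; 100% = DMSO vehicle-treated spheroids so lower means less viable.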

**Q.** For `COC(=O)c1ccc2c(C(=Nc3ccc(N(C)C(=O)CN4CCN(C)CC4)cc3)c3ccccc3)c(O)[nH]c2c1` + C=CC(=O)N1CCN(c2nc(OCC3CCCN3C)nc3c2CCN(c2cccc4cccc(C)c24)C3)CC1CC#N, which IC50 (second compound 0.0316 µM) is on record?
**A.** 1890 nM

**Q.** And the IC50 (second compound 0.1 µM)?
**A.** 732 nM

**Q.** And the IC50 (second compound 0.316 µM)?
**A.** 949 nM

**Q.** What about the IC50 (second compound 1 µM) of the same compound?
**A.** 446 nM

**Q.** What about the IC50 (second compound 3.16 µM) of the same compound?
**A.** < 31.6 nM

**Q.** And the viability, T/C [1]?
**A.** 103%

**Q.** And the viability, T/C [2]?
**A.** 104%

**Q.** And the viability, T/C [3]?
**A.** 113%

**Q.** What about the viability, T/C [4] of the same compound?
**A.** 85.3%

**Q.** And the viability, T/C [5]?
**A.** 21.7%

**Q.** And the viability, T/C [6]?
**A.** 13.4%

**Q.** What about the viability, T/C [7] of the same compound?
**A.** 91.5%

**Q.** What about the viability, T/C [8] of the same compound?
**A.** 92.3%

**Q.** And the viability, T/C [9]?
**A.** 103%

**Q.** What about the viability, T/C [10] of the same compound?
**A.** 33%

**Q.** And the viability, T/C [11]?
**A.** 12.6%

**Q.** And the viability, T/C [12]?
**A.** 7.16%

**Q.** And the viability, T/C [13]?
**A.** 97.8%

**Q.** And the viability, T/C [14]?
**A.** 109%

**Q.** What about the viability, T/C [15] of the same compound?
**A.** 102%

**Q.** And the viability, T/C [16]?
**A.** 47.5%

**Q.** What about the viability, T/C [17] of the same compound?
**A.** 7.39%

**Q.** What about the viability, T/C [18] of the same compound?
**A.** 5.61%

**Q.** And the viability, T/C [19]?
**A.** 105%

**Q.** And the viability, T/C [20]?
**A.** 86.3%

**Q.** What about the viability, T/C [21] of the same compound?
**A.** 65.3%

**Q.** What about the viability, T/C [22] of the same compound?
**A.** 20.9%

**Q.** What about the viability, T/C [23] of the same compound?
**A.** 1.39%

**Q.** What about the viability, T/C [24] of the same compound?
**A.** 1.01%

**Q.** What about the viability, T/C [25] of the same compound?
**A.** 0.29%

**Q.** What about the viability, T/C [26] of the same compound?
**A.** 0.26%

**Q.** What about the viability, T/C [27] of the same compound?
**A.** 0.23%

**Q.** What about the viability, T/C [28] of the same compound?
**A.** 0.11%

**Q.** What about the viability, T/C [29] of the same compound?
**A.** 0.77%

**Q.** What about the viability, T/C [30] of the same compound?
**A.** 0.09%

**Q.** What does the source list for `O=C(c1cc(Cc2n[nH]c(=O)c3ccccc23)ccc1F)N1CCN(C(=O)C2CC2)CC1` + C=CC(=O)N1CCN(c2nc(OCC3CCCN3C)nc3c2CCN(c2cccc4cccc(C)c24)C3)CC1CC#N?
**A.** IC50 (second compound 0.0316 µM): 1170 nM; IC50 (second compound 0.1 µM): 3530 nM; IC50 (second compound 0.316 µM): 8700 nM; IC50 (second compound 1 µM): 7630 nM; IC50 (second compound 3.16 µM): < 31.6 nM; viability, T/C [1]: 105%; viability, T/C [2]: 107%; viability, T/C [3]: 96.2%; viability, T/C [4]: 53.1%; viability, T/C [5]: 30.7%; viability, T/C [6]: 26.6%; viability, T/C [7]: 104%; viability, T/C [8]: 119%; viability, T/C [9]: 121%; viability, T/C [10]: 114%; viability, T/C [11]: 51.6%; viability, T/C [12]: 34.3%; viability, T/C [13]: 113%; viability, T/C [14]: 111%; viability, T/C [15]: 116%; viability, T/C [16]: 118%; viability, T/C [17]: 72.2%; viability, T/C [18]: 47%; viability, T/C [19]: 108%; viability, T/C [20]: 107%; viability, T/C [21]: 107%; viability, T/C [22]: 107%; viability, T/C [23]: 77.3%; viability, T/C [24]: 41.6%; viability, T/C [25]: 0.23%; viability, T/C [26]: 0.3%; viability, T/C [27]: 0.47%; viability, T/C [28]: 0.26%; viability, T/C [29]: 0.28%; viability, T/C [30]: 0.22%
